The results in this text go back to publication PMC9896412, “The role of invariant surface glycoprotein 75 in xenobiotic acquisition by African trypanosomes” (Microbial Cell, 2023).

Assay [1] concerns the target T1, invariant surface glycoprotein 75 (ISG75) (Trypanosoma brucei, UniProt Q1WK95). In words: biochemical.
The target of assay [2] is T1, invariant surface glycoprotein 75 (ISG75). The assay is described as follows: ITC (tag-free protein from S2 cells). The format is binding.

A word on the Kd: it is the constant that tells how readily two partners part at equilibrium.

In turn, `Cc1ccc(C(=O)Nc2ccc(S(=O)(=O)O)c3cc(S(=O)(=O)O)cc(S(=O)(=O)O)c23)cc1NC(=O)c1cccc(NC(=O)Nc2cccc(C(=O)Nc3cc(C(=O)Nc4ccc(S(=O)(=O)O)c5cc(S(=O)(=O)O)cc(S(=O)(=O)O)c45)ccc3C)c2)c1` [suramin] yielded a Kd in assay [1] of 3200 nM. Regarding `Cc1cc(-c2ccc(/N=N/c3c(S(=O)(=O)O)cc4cc(S(=O)(=O)O)cc(N)c4c3O)c(C)c2)ccc1/N=N/c1c(S(=O)(=O)O)cc2cc(S(=O)(=O)O)cc(N)c2c1O` [trypan blue], the Kd in assay [2] was found to be 600 nM.
